Patent US20240279215A1 (Cytokinetics, Incorporated, priority 2022, published 2024)

Molecular target: human NAMPT (Homo sapiens (Human), UniProt P43490)
Test: NMN fluorescence biochemical assay (human recombinant NAMPT enzyme assay)
Method: Compounds described herein were assayed for their ability to stimulate the synthesis of nicotinamide mononucleotide (NMN) by the enzyme NAMPT. The human recombinant enzyme assay measures the activation of the enzyme activity by compounds using recombinant enzyme and substrates in a buffered cell-free system. The assay conditions closely mimic cellular environments. Dose responses were measured using an assay to detect the formation of nicotinamide mono-nucleotide. All experiments were performed in the 384-well format. Generally, 0.5 μL of DMSO containing varying concentrations of the test compound was mixed with 10 μL of the enzyme reagent solution. Enzyme reactions were initiated with the addition of […] containing the substrates. The final assay conditions were as follows: 6 nM human NAMPT, 2.5 mM ATP, 20 μM PRPP and 150 μM nicotinamide in 50 mM HEPES, pH 7.2, 1 mM DTT, 1 mM CHAPS 50 mM NaCl, 100 mM MgCl2. Following an incubation of 60 min at ambient temperature, 10 μL of 20% acetophenone in DMSO was added, followed by 10 μL of 2 M KOH and 40 μL of formic acid. The plates were read for fluorescence (Excitation/Emission=355 nm/460 nm) using an EnVision plate reader after 40 mins of incubation at ambient temperature.

Chain of human NAMPT (P43490 whole entry): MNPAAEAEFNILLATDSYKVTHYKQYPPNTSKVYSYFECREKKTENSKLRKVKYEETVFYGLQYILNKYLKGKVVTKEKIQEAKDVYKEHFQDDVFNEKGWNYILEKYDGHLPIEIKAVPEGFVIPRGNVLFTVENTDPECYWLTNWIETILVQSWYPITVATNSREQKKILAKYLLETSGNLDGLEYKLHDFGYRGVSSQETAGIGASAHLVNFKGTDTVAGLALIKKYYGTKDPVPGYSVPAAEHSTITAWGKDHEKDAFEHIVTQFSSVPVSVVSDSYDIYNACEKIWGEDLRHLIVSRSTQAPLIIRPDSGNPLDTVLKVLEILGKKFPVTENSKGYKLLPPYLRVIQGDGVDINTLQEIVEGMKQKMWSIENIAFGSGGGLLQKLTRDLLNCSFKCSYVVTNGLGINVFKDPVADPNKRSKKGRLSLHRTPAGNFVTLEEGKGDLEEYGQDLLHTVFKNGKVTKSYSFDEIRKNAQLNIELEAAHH

Structure (SMILES) | AC1.4 Human [µM] | EC50 [µM]
CS(=O)(=O)N1CCC2(CC(c3ccc(NC(=O)OCc4cnco4)cc3F)C2)C1 (single isomer, unassigned) [Compound 359] | 0.104 | 3.5
CS(=O)(=O)N1CCC2(CC(c3ccc(NC(=O)OCc4cnco4)cc3F)C2)C1 (single isomer, unassigned) [Compound 360] | 0.07 | 2.33
CC(C)C(=O)N1CCC2(CC(c3ccc(NC(=O)OCc4cnco4)cc3F)C2)C1 (single isomer, unassigned) [Compound 361] | 0.08 | 10.8
CC(C)C(=O)N1CCC2(CC(c3ccc(NC(=O)OCc4cnco4)cc3F)C2)C1 (single isomer, unassigned) [Compound 362] | 0.05 | 4.6
CN(C)C(=O)N1CCC2(CC(c3ccc(NC(=O)OCc4cnco4)cc3F)C2)C1 (single isomer, unassigned) [Compound 363] | 0.03 | 4.49
CN(C)C(=O)N1CCC2(CC(c3ccc(NC(=O)OCc4cnco4)cc3F)C2)C1 (single isomer, unassigned) [Compound 364] | 0.07 | 3.97
CC(=O)N1CCC2(CC(c3ccc(NC(=O)OCc4cnco4)cc3F)C2)C1 (single isomer, unassigned) [Compound 372] | 0.09 | 5.64
CC(=O)N1CCC2(CC(c3ccc(NC(=O)OCc4cnco4)cc3F)C2)C1 (single isomer, unassigned) [Compound 373] | 0.013 | 0.24
COc1ccc(COC(=O)Nc2ccc(CN3CCC[C@@H]3c3cccnc3)cc2)cc1 [Compound 1, (4-methoxyphenyl)methyl N-(4-{[(2R)-2-(pyridin-3-yl)pyrrolidin-1-yl]methyl}phenyl)carbamate] | 0.03 | 0.44
O=C(Nc1ccc(CN2CCC[C@@H]2c2cccnc2)cc1)OCc1ccncc1 [Compound 3, pyridin-4-ylmethylN-(4-{[(2R)-2-(pyridin-3-yl)pyrrolidin-1-yl]methyl}phenyl)carbamate] | 0.05 | 0.31
O=C(Nc1ccc(CN2CCC[C@@H]2c2cccnc2)cc1)OCc1cnco1 [Compound 6, oxazol-5-ylmethyl (R)-(4-((2-(pyridin-3-yl)pyrrolidin-1-yl)methyl)phenyl)carbamate] | 0.07 | 0.55
Cc1ccc(C(=O)NCc2ccc(NC(=O)OCc3cn[nH]c3)cc2)cn1 [Compound 9, (1H-pyrazol-4-yl)methyl (4-((6-methylnicotinamido)methyl)phenyl)carbamate] | 0.15 | 16
CNS(=O)(=O)N1CCC(Cc2ccc(NC(=O)OCc3cnco3)cc2)CC1 [Compound 10, oxazol-5-ylmethyl (4-((1-(N-methylsulfamoyl)piperidin-4-yl)methyl)phenyl)carbamate] | 0.16 | 11.2
O=C(Nc1ccc(CCC2CCN(C(=O)C3COC3)CC2)cc1)OCc1cnco1 [Compound 13, oxazol-5-ylmethyl (4-(2-(1-(oxetane-3-carbonyl)piperidin-4-yl)ethyl)phenyl)carbamate] | 0.22 | 44.7
NC(=O)c1ccc(COC(=O)Nc2ccc(Cc3ccncc3)cc2)cc1 [Compound 14, 4-carbamoylbenzyl (4-(pyridin-4-ylmethyl)phenyl)carbamate] | 0.23 | 10.7
CS(=O)(=O)N1CCC(Cc2ccc(NC(=O)OCc3cnco3)cc2)CC1 [Compound 18, oxazol-5-ylmethyl (4-((1-(methylsulfonyl)piperidin-4-yl)methyl)phenyl)carbamate] | 0.25 | 16.2
C[C@H](NC(=O)C1CC2(C1)CC(F)(F)C2)c1ccc(NC(=O)OCc2cnco2)cc1 [Compound 22, 1,3-oxazol-5-ylmethyl N-{4-[(1S)-1-({6,6-difluorospiro[3.3]heptan-2-yl}formamido)ethyl]phenyl}carbamate] | 0.32 | 10.1
Cc1ccc(C(=O)NCc2ccc(NC(=O)OCc3cnco3)cc2)cn1 [Compound 25, oxazol-5-ylmethyl (4-((6-methylnicotinamido)methyl)phenyl)carbamate] | 0.35 | 7.8
CN1CCN(Cc2ccc(NC(=O)OCc3ccc(Cl)cc3)cc2)C(=O)C1 [Compound 28, 4-chlorobenzyl (4-((4-methyl-2-oxopiperazin-1-yl)methyl)phenyl)carbamate] | 0.36 | 3.01
CN(C)C(=O)N1CCC(Cc2ccc(NC(=O)OCc3cnco3)cc2)CC1 [Compound 30, oxazol-5-ylmethyl (4-((1-(dimethylcarbamoyl)piperidin-4-yl)methyl)phenyl)carbamate] | 0.37 | 25.1
O=C(Nc1ccc(NS(=O)(=O)Cc2ccccc2)cc1)OCc1ccc(Cl)cc1 [Compound 33, 4-chlorobenzyl (4-((phenylmethyl)sulfonamido)phenyl)carbamate] | 0.38 | 1.01

Second part, the molecule after the results:

AC1.4 Human [µM] | EC50 [µM] | Structure (SMILES)
0.05 | 0.96 | NC(=O)c1ccc(COC(=O)Nc2ccc(CN3CCC[C@@H]3c3cccnc3)cc2)cc1 [Compound 2, (4-carbamoylphenyl)methyl N-(4-{[(2R)-2-(pyridin-3-yl)pyrrolidin-1-yl]methyl}phenyl)carbamate]
0.06 | 21.8 | CN(C)C(=O)N1CCC(c2ccc(NC(=O)OCc3cnco3)cc2)CC1 [Compound 4, oxazol-5-ylmethyl (4-(1-(dimethylcarbamoyl)piperidin-4-yl)phenyl)carbamate]
0.11 | 20.8 | CC(C)C(=O)N1CCC(c2ccc(NC(=O)OCc3cnco3)cc2)CC1 [Compound 7, 1,3-oxazol-5-ylmethyl N-{4-[1-(2-methylpropanoyl)piperidin-4-yl]phenyl}carbamate]
0.21 | 22.5 | COC(=O)N1CCC(Cc2ccc(NC(=O)OCc3cnco3)cc2)CC1 [Compound 11, methyl 4-(4-(((oxazol-5-ylmethoxy)carbonyl)amino)benzyl)piperidine-1-carboxylate]
0.22 | 0.34 | Cc1nn(C)c(C(=O)N[C@@H](C)c2ccc(NC(=O)OCc3ccc(Cl)cc3)cc2)c1C [Compound 12, (4-chlorophenyl)methyl N-{4-[(1S)-1-[(2,4,5-trimethylpyrazol-3-yl)formamido]ethyl]phenyl}carbamate]
0.24 | 2.16 | CC(=O)N1CCC(c2ccc(NC(=O)OCc3ccc(Cl)cc3)cc2)CC1 [Compound 15, (4-chlorophenyl)methyl N-[4-(1-acetylpiperidin-4-yl)phenyl]carbamate]
0.25 | 3.5 | CC(=O)N1CC(OCc2ccc(NC(=O)OCc3ccc(Cl)cc3)cc2)C1 [Compound 16, 4-chlorobenzyl (4-(((1-acetylazetidin-3-yl)oxy)methyl)phenyl)carbamate]
0.25 | 0.9 | CNS(=O)(=O)N1CCC(Cc2ccc(NC(=O)OCc3ccc(Cl)cc3)cc2)CC1 [Compound 17, 4-chlorobenzyl (4-((1-(N-methylsulfamoyl)piperidin-4-yl)methyl)phenyl)carbamate]
0.26 | 0.59 | Cc1nn(C)c(C(=O)NCc2ccc(NC(=O)OCc3ccc(Cl)cc3)cc2)c1C [Compound 19, (4-chlorophenyl)methyl N-(4-{[(2,4,5-trimethylpyrazol-3-yl)formamido]methyl}phenyl)carbamate]
0.29 | 2.57 | C[C@H](NC(=O)c1ccnn1C1CCOCC1)c1ccc(NC(=O)OCc2ccc(Cl)cc2)cc1 [Compound 20, (4-chlorophenyl)methyl N-{4-[(1S)-1-{[2-(oxan-4-yl)pyrazol-3-yl]formamido}ethyl]phenyl}carbamate]
0.34 | 1.88 | O=C(Nc1ccc(CN2CCN(c3cnccn3)CC2)cc1)OCc1ccc(Cl)cc1 [Compound 24, (4-chlorophenyl)methyl N-(4-{[4-(pyrazin-2-yl)piperazin-1-yl]methyl}phenyl)carbamate]
0.35 | 27.5 | CC(=O)N1CCC(CCc2ccc(NC(=O)OCc3cnco3)cc2)CC1 [Compound 26, oxazol-5-ylmethyl (4-(2-(1-acetylpiperidin-4-yl)ethyl)phenyl)carbamate]
0.37 | 1.51 | O=C(Nc1ccc(CN2CCN(c3ccccn3)CC2)cc1)OCc1ccc(Cl)cc1 [Compound 29, (4-chlorophenyl)methyl N-(4-{[4-(pyridin-2-yl)piperazin-1-yl]methyl}phenyl)carbamate]
0.37 | 21.7 | CC(=O)N1CCC(Cc2ccc(NC(=O)OCc3cnco3)cc2)CC1 [Compound 31, oxazol-5-ylmethyl (4-((1-acetylpiperidin-4-yl)methyl)phenyl)carbamate]
0.38 | 0.82 | CN(C)S(=O)(=O)N1CCC(Cc2ccc(NC(=O)OCc3ccc(Cl)cc3)cc2)CC1 [Compound 34, 4-chlorobenzyl (4-((1-(N,N-dimethylsulfamoyl)piperidin-4-yl)methyl)phenyl)carbamate]
